Results published in ChEMBL document CHEMBL1151691, “Structure and biological activity of novel FN analogs as flowering inducers” (Bioorg Med Chem, 2008).
Active and inactive are the calls of the source. No cut-off for these calls is given here.

What follows are compounds tested on Lemna aequinoctialis (assay: Induction of flowering in Lemna paucicostata 151 after 10 days).
Assay type: functional, organism-based

Row | SMILES | Activity
1 | CCCCC[C@@H]1[C@H](CC(=O)C(O)CCCCCCCC(=O)O)O[C@]2(O)CC13C(=CC2=O)NC[C@@H]3O (some centres not stated) | Active
2 | CC/C=C\C[C@@H]1[C@H](CC(=O)[C@H](O)CCCCCCCC(=O)OC)O[C@]2(O)CC13C(=CC2=O)NC[C@@H]3O | Active
3 | CC/C=C\C[C@@H]1[C@H](CC(=O)[C@H](O)CCCCCCCC(=O)O)O[C@]2(O)CC13C(=CC2=O)N(C)C[C@@H]3O | Active
4 | CCCCC[C@@H]1[C@H](CC(=O)CCCCCCCCC(=O)O)O[C@]2(O)CC13C(=CC2=O)NC[C@@H]3O | inactive
5 | CC/C=C\C[C@@H]1[C@H](CC(=O)[C@@H](O)CCCCCCCC(=O)O)O[C@]2(O)CC13C(=CC2=O)N(C)C[C@@H]3O | Active
6 | CC/C=C\C[C@@H]1[C@H](CC(=O)CCCCCCCCC(=O)O)O[C@]2(O)CC13C(=CC2=O)NC[C@@H]3O | Active
7 | CC/C=C\C[C@@H]1[C@H](CC(=O)[C@@H](O)CCCCCCCC(=O)OC)O[C@]2(O)CC13C(=CC2=O)NC[C@@H]3O | Active
